The values that follow come from PubChem BioAssay AID1963839 (Molecular Pharmacology Branch, DTP, NCI, 2024).

The test system of this assay is 817829-284-R-J1-PDC complex spheroid viability. The assay is described as follows: Anticancer human tumor 817829-284-R-J1-PDC patient-derived colon adenocarcinoma cell line growth inhibition [POLQ]. The following applies: for viability, T/C: stronger effect = lower value; for IC50: curve of compound. The protocol:
Multicellular complex tumor spheroid response to Polymerase (POL) inhibitors (novobiocin, ART-558, RP6685) in combination with a variety of drugs and investigational agents in selected tumor cell lines
The POL inhibitors (novobiocin, ART-558, and RP6685) were evaluated both individually and in combination with standard of care and investigational anticancer small molecules within a complex spheroid model of solid tumors. . Complex spheroids include a stromal component modeled by human endothelial cells (HUVEC) and fibroblasts modeled by human mesenchymal stem cells (MSCs). The concentration ranges selected for each drug and investigational agent were based upon clinically achievable concentrations if the clinical Cmax of the agent was known.
Compounds. The drugs and investigational agents: novobiocin (NSC847541), ART-558 (NSC835418), RP-6685 (NSC848927), peposertib (NSC802822), ceralasertib (NSC780249), elimusertib (NSC800525), camonsertib (NSC841442), AZD-1390 (NSC803789), olaparib (NSC753686), talazoparib (NSC767125), rucaparib (NSC756644), sotorasib (NSC818433), MRTX-1133 (NSC836407), SN-38 (NSC673596), topotecan (NSC609699), epotoside (NSC141540), doxorubicin (NSC123127), gemcitabine (NSC613327), 5-fluorouracil (NSC19893), paclitaxel (NSC125973), vemurafenib (NSC761431), MSA-2 (NSC828583), SN-011 (NSC837082), adavosertib (NSC754352), prexasertib (NSC758257), carboplatin (NSC241240) and oxaliplatin (NSC266046), were obtained from the National Cancer Institute (NCI) Developmental Therapeutics Program Chemical Repository (21). The FDA-approved anticancer drug set is available from the Developmental Therapeutics Program at https://dtp.cancer.gov/organization/dscb/obtaining/. […] The stock solutions were prepared in dimethyl sulfoxide (DMSO, Sigma-Aldrich, St. Louis, MO, cat. D2650), except for the platinum compounds which were prepared in saline (Quality Biological, Gaithersburg, MD, cat. 114-055-101), at 800-fold the tested concentration and stored at -70 degrees C prior to their use. All drugs and investigational agents were tested over a range starting from a high concentration at or near the clinical Cmax and decreasing in half-log increments. If the clinical Cmax for an agent had not been determined, the highest concentration tested was 10 microM, except for SN-38, which was tested at a high concentration of 1 microM.
Cell Culture. All cells were maintained in an incubator at 37 degrees C and 5% CO2 with 95% humidity. The PDC lines were cultured according to standard operating procedures established by the NCI PDMR (https://pdmr.cancer.gov). Table 3 of the manuscript, lists the cell lines along with the number of the three cell types plated to form the mct-spheroids and media for tumor cell growth. After thawing, all PDC lines, except 997537-175-T-J1-PDC and 415267-285-R-J2-PDC, were cultured in Matrigel-coated flasks prepared with a working solution of 1X Ham's F-12 nutrient mix, without supplementation (Thermo Fisher Scientific, cat. 11765054), 100 U/mL penicillin-streptomycin (Thermo Fisher Scientific, cat. 15140122), and 2.5% Matrigel (Corning Inc., Corning, NY, cat. 354248) for the first three passages. The two PDC lines 997537-175-T-J1-PDC and 415267-285-R-J2-PDC were cultured on uncoated flasks. The 857933-349-R-J2-PDC line was cultured in 6C/Colon 1B media containing advanced DMEM/F-12 (Thermo Fisher Scientific, cat. 12634028), 10 mM HEPES (Thermo Fisher Scientific, cat. 15630080), 1X GlutaMAX supplement (Thermo Fisher Scientific, cat. 35050061), 0.1 mg/mL primocin (InvivoGen, San Diego, CA, cat. ant-pm-2), 10% defined fetal bovine serum, heat inactivated (HyClone Laboratories Inc., Logan, UT, cat. SH30070.03HI), 50% L-WRN conditioned media (ATCC, cat. CRL-3276), 1.25 mM N-Acetyl-L-cysteine (Sigma-Aldrich, cat. A9165), 10 mM nicotinamide (Sigma-Aldrich, cat. N0636), 1X B-27 supplement (Thermo Fisher Scientific, cat. 17504044), 1X N-2 supplement (Thermo Fisher Scientific, cat. […]

Molecules are shown by their SMILES. “And” between values parts separate entries of the source, which are not always exact repeats. Equal entries are not always repeated. A value given as a limit tells only on which side of the number the result lay.
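Note: spheroids exposed to compounds for 7 days.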

With `C#Cc1c(F)ccc2cc(O)cc(-c3ncc4c(N5CC6CCC(C5)N6)nc(OCC56CCCN5CC(F)C6)nc4c3F)c12` (stereo not given), the IC50 is greater than 10000 nM. Moreover, under “compound 0.0316 µM”, the viability, T/C is 95.2% and 94.8% and 96%. In addition, where the note is “compound 0.1 µM”, the viability, T/C was 84.6% and 98.2% and 122%. Further, the viability, T/C (compound 0.316 µM) is 72% and 98.1% and 118%. Also, the viability, T/C (compound 1 µM) is 88.4% and 89% and 92.8%. The viability, T/C (compound 3.16 µM) is 90.2% and 111% and 115%. In addition, the viability, T/C (compound 10 µM) is 53.8% and 102% and 54.2%.
Regarding `C=CC(=O)N1CCN(c2nc(=O)n(-c3c(C)ccnc3C(C)C)c3nc(-c4c(O)cccc4F)c(F)cc23)C(C)C1` (stereo not given), the IC50 was > 10000 nM and 8900 nM. Also, for the setting “compound 0.0316 µM”, the viability, T/C was 70% and 89.9% and 113%. Also, the viability, T/C (compound 0.1 µM) was 93.6% and 105% and 95.7%. Also, for the setting “compound 0.316 µM”, the viability, T/C is 103% and 97.2% and 99.5%. For the same molecule, the viability, T/C (compound 1 µM) is 86.7% and 94.7% and 101%. Besides, the viability, T/C (compound 3.16 µM) is 88.8% and 90.2% and 102%. Moreover, for the setting “compound 10 µM”, the viability, T/C is 53% and 58.3% and 44.1%.
Turning to `C=CCn1c(=O)c2cnc(Nc3ccc(N4CCN(C)CC4)cc3)nc2n1-c1cccc(C(C)(C)O)n1`, the IC50 is 188 nM and 195 nM and 208 nM. Further, the viability, T/C (compound 0.00316 µM) was 115% and 101% and 105%. The viability, T/C (compound 0.01 µM) was 93.7% and 84% and 89.8%. Further, the viability, T/C (compound 0.0316 µM) was 71.1% and 89.5% and 98.8%. Further, for the setting “compound 0.1 µM”, the viability, T/C is 77.6% and 72.5% and 64.8%. Also, the viability, T/C (compound 0.316 µM) is 36.1% and 33.8% and 40.5%. Moreover, for the setting “compound 1 µM”, the viability, T/C is 5.95% and 6.09% and 5.44%.
Regarding `CC(=O)O[C@H]1C(=O)[C@@]2(C)[C@H]([C@H](OC(=O)c3ccccc3)[C@]3(O)C[C@H](OC(=O)[C@H](O)[C@@H](NC(=O)c4ccccc4)c4ccccc4)C(C)=C1C3(C)C)[C@]1(OC(C)=O)CO[C@@H]1C[C@@H]2O`, the IC50 was less than 9.49 nM. The viability, T/C (compound 0.00949 µM) is 5.15% and 4.45% and 5.76%. Also, the viability, T/C (compound 0.03 µM) is 3.94% and 3.44% and 4.19%. In addition, the viability, T/C (compound 0.0949 µM) was 3.9% and 3.92% and 5.6%. Moreover, the viability, T/C (compound 0.3 µM) was 4.36% and 3.82% and 4.56%. Also, where the note is “compound 0.949 µM”, the viability, T/C was 4.81% and 4.08% and 5.15%. Besides, where the note is “compound 3 µM”, the viability, T/C was 4.4% and 3.61% and 5.14%.
On to `CC1COCCN1c1cc(-c2ccnn2C)c2ccnc(-c3ccn[nH]3)c2n1` (stereo not given), for which the IC50 is < 31.6 nM and 49.9 nM. Further, under “compound 0.0316 µM”, the viability, T/C is 33.8% and 33.3% and 74.6%. Also, under “compound 0.1 µM”, the viability, T/C is 11.3% and 12.5% (2×). The viability, T/C (compound 0.316 µM) was 7.44% and 7.37% and 5.59%. Under “compound 1 µM”, the viability, T/C was 4.37% and 3.99% and 4.03%. Further, the viability, T/C (compound 3.16 µM) was 3.67% and 2.87% and 3.57%. The viability, T/C (compound 10 µM) is 2.72% and 2.9% and 2.76%.
Consider `CC1COCCN1c1cc(C2(S(C)(=N)=O)CC2)nc(-c2ccnc3[nH]ccc23)n1` (stereo not given), for which the IC50 is 545 nM and 274 nM and 472 nM. Besides, the viability, T/C (compound 0.0316 µM) is 110% and 98% and 105%. In addition, for the setting “compound 0.1 µM”, the viability, T/C was 96.4% and 67.8% and 94.3%. The viability, T/C (compound 0.316 µM) is 65% and 52.9% and 63.1%. In addition, the viability, T/C (compound 1 µM) was 33.9% and 23.4% and 25.4%. The viability, T/C (compound 3.16 µM) is 8.76% and 7.96% and 7.97%. For the same molecule, the viability, T/C (compound 10 µM) is 4.29% and 4.9% and 3.97%.
With `CCCS(=O)(=O)Nc1ccc(F)c(C(=O)c2c[nH]c3ncc(-c4ccc(Cl)cc4)cc23)c1F`, the IC50 is 3260 nM and 2920 nM and 3800 nM. Further, the viability, T/C (compound 0.0316 µM) is 89.8% and 97% and 86.7%. In addition, for the setting “compound 0.1 µM”, the viability, T/C was 87% and 72.4% and 57%. The viability, T/C (compound 0.316 µM) was 66.1% and 86.6% and 80.9%. Also, where the note is “compound 1 µM”, the viability, T/C is 72.1% and 59.4% and 61%. Further, the viability, T/C (compound 3.16 µM) is 55.4% and 56.3% and 59.4%. The viability, T/C (compound 10 µM) is 7.53% and 9.53% and 19.9%.
Consider `CC[C@@]1(O)C(=O)OCc2c1cc1n(c2=O)Cc2cc3c(CN(C)C)c(O)ccc3nc2-1`, for which the IC50 is 4.5 nM and 7.57 nM and 6.12 nM. In addition, where the note is “compound 0.000316 µM”, the viability, T/C was 89.9% and 104% and 89%. For the same molecule, where the note is “compound 0.001 µM”, the viability, T/C was 72.3% and 95.7% and 74.1%. For the same molecule, where the note is “compound 0.00316 µM”, the viability, T/C was 55.4% and 82.4% and 60.1%. The viability, T/C (compound 0.01 µM) was 39.6% and 38.4% and 46%. In addition, the viability, T/C (compound 0.0316 µM) is 22.9% and 25.4% and 21.7%. In addition, the viability, T/C (compound 0.1 µM) is 15.2% and 16.8% and 14.6%.
`CCc1c2c(nc3ccc(O)cc13)-c1cc3c(c(=O)n1C2)COC(=O)[C@]3(O)CC`: the IC50 is less than 3.16 nM. The viability, T/C (compound 0.00316 µM) was 19.4% and 20.1% and 25.3%. Besides, for the setting “compound 0.01 µM”, the viability, T/C was 16.5% and 16.4% and 16.3%. Moreover, under “compound 0.0316 µM”, the viability, T/C is 13.7% and 12.4% and 11.8%. The viability, T/C (compound 0.1 µM) was 7.6% and 9.24% and 7.39%. In addition, the viability, T/C (compound 0.316 µM) is 6.4% and 5.1% and 5.47%. Further, the viability, T/C (compound 1 µM) was 3.09% and 2.77% and 3.28%.
Take `CCc1cc2c(N3CCc4c(cc(Cn5ccnc5)cc4-c4cn(C)nc4C(F)(F)F)C3=O)cc(C)nc2c(OC)n1`: the IC50 is 2800 nM and 1740 nM and 2830 nM. Also, the viability, T/C (compound 0.0316 µM) was 88.4% and 75.3% and 76.3%. For the same molecule, the viability, T/C (compound 0.1 µM) is 85.8% and 83.5% and 79.4%. The viability, T/C (compound 0.316 µM) is 75.3% and 63.8% and 69.3%. In addition, where the note is “compound 1 µM”, the viability, T/C was 80.6% and 56.1% and 65.8%. For the same molecule, the viability, T/C (compound 3.16 µM) was 46.4% and 44.7% and 47.9%. The viability, T/C (compound 10 µM) was 33.1% and 29.7% and 30.8%.

In general, viability, T/C refers to the result in the treated group divided by that in the control group, in per cent. As a reminder, the IC50 is the concentration that gives 50% inhibition.
